Assay [1] has as its target Carbonic anhydrase 9 (Homo sapiens, UniProt Q16790). Briefly: Inhibition of human carbonic anhydrase 9 assessed as reduction in CO2 hydration preincubated for 15 mins to 2 hrs by phenol red dye based stopped flow CO2 hydrase assay.
The target in assay [2] is Carbonic anhydrase 2 (Homo sapiens, UniProt P00918). Briefly: Inhibition of human carbonic anhydrase 2 assessed as reduction in CO2 hydration preincubated for 15 mins to 2 hrs by phenol red dye based stopped flow CO2 hydrase assay.
Assay [3] deals with Carbonic anhydrase 1 (Homo sapiens, UniProt P00915). Briefly: Inhibition of human carbonic anhydrase 1 assessed as reduction in CO2 hydration preincubated for 15 mins to 2 hrs by phenol red dye based stopped flow CO2 hydrase assay.
Assay [4] concerns the target Carbonic anhydrase 4 (Homo sapiens, UniProt P22748). Kind of assay: Inhibition of human carbonic anhydrase 4 assessed as reduction in CO2 hydration preincubated for 15 mins to 2 hrs by phenol red dye based stopped flow CO2 hydrase assay.

Where only a bound is given, the exact number is not on record here.

The values below come from ChEMBL document CHEMBL4304795, “Bis-benzoxaboroles: Design, Synthesis, and Biological Evaluation as Carbonic Anhydrase Inhibitors” (ACS Med Chem Lett, 2019).

For orientation: Ki means a measure of affinity in units of concentration, obtained from inhibition or displacement.

Sequence of Carbonic anhydrase 1 (P00915 whole entry): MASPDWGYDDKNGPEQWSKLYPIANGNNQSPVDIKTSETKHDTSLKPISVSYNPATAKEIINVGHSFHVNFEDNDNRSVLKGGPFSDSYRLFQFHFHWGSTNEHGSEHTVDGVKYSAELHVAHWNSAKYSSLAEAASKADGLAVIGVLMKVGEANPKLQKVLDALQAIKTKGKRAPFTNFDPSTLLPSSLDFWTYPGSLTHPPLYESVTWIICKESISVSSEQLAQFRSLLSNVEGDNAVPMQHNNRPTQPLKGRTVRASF
Sequence of Carbonic anhydrase 4 (P22748 whole entry): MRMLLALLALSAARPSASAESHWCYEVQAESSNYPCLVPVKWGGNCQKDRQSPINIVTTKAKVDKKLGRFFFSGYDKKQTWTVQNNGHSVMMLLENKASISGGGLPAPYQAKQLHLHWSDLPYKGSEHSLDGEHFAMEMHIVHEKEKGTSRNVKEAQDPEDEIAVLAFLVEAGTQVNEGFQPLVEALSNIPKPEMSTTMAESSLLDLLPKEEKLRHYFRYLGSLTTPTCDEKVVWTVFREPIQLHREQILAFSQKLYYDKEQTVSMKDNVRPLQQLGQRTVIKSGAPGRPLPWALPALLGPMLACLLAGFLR

`O=C(CCC(=O)Nc1ccc2c(c1)B(O)OC2)Nc1ccc2c(c1)B(O)OC2`: the figures for the Ki in assay [1], in assay [2] and in assay [3] were 680 nM, 342 nM and 2890 nM, respectively.
For `O=C(/C=C/C=C/C(=O)Nc1ccc2c(c1)B(O)OC2)Nc1ccc2c(c1)B(O)OC2`, in that order: 4870 nM, 3930 nM and 3300 nM.
`O=c1c(Nc2ccc3c(c2)B(O)OC3)c(Nc2ccc3c(c2)B(O)OC3)c1=O`: the Ki in assay [2] stood at 2280 nM; in assay [3], 3080 nM.
Turning to `O=C(/C=C/C(=O)Nc1ccc2c(c1)B(O)OC2)Nc1ccc2c(c1)B(O)OC2`, the inhibition constant Ki in assay [1] was found to be 1480 nM; in assay [2] it was 1710 nM; in assay [3] it was 3210 nM.
In the case of `O=C(CCCCC(=O)Nc1ccc2c(c1)B(O)OC2)Nc1ccc2c(c1)B(O)OC2`, the Ki turned out to be 312 nM in assay [1], 541 nM in assay [2] and 1670 nM in assay [3].
Regarding `O=C(Nc1ccc2c(c1)B(O)OC2)c1cc(C(=O)Nc2ccc3c(c2)B(O)OC3)cc(C(=O)Nc2ccc3c(c2)B(O)OC3)c1`, the Ki is 8630 nM in assay [1], > 100000 nM in assay [4], 39300 nM in assay [2] and 21900 nM in assay [3].
For `CC(C)(C)OC(=O)N[C@@H](CC(=O)Nc1ccc2c(c1)B(O)OC2)C(=O)Nc1ccc2c(c1)B(O)OC2`, the Ki in assay [1] turned out to be 280 nM; in assay [2], 908 nM; in assay [3], 813 nM.
For `O=C(O)c1ccc2c(c1)B(O)OC2`, in that order: 400 nM, 173 nM and 850 nM.
In the case of `OB1OCc2ccc(/N=C/c3ccc(/C=N/c4ccc5c(c4)B(O)OC5)s3)cc21`, the values for the Ki in assay [1], in assay [2] and in assay [3] were 203 nM, 2340 nM and 4130 nM, respectively.
In the case of `O=C(C/C=C/CC(=O)Nc1ccc2c(c1)B(O)OC2)Nc1ccc2c(c1)B(O)OC2`, the results for the Ki in assay [1], in assay [2] and in assay [3] were 1120 nM, 2580 nM and 2450 nM, respectively.
For `O=C(CC[C@H](NC(=O)OCc1ccccc1)C(=O)Nc1ccc2c(c1)B(O)OC2)Nc1ccc2c(c1)B(O)OC2`, in that order: 64.3 nM, 289 nM and 1780 nM.
For the compound `O=C(CC(=O)Nc1ccc2c(c1)B(O)OC2)Nc1ccc2c(c1)B(O)OC2`, the values for the inhibition constant (Ki) in assay [1], in assay [2] and in assay [3] were 158 nM, 339 nM and 886 nM, respectively.
